The values below come from patent US20230102554A1 (GB002, INC., priority 2019, published 2023).

Experiment [1] concerns the target T1, Human PDGFRα, cytoplasmic domain (GST-PDGFRα) (Homo sapiens, UniProt P16234).
T1 construct: made in house
The experiment is described as follows: Human PDGFRα biochemical inhibition assay (off-chip Mobility Shift Assay).

For experiment [2], the target named is T2, Human PDGFRβ, cytoplasmic domain (GST-PDGFRβ) (Homo sapiens, UniProt P09619).
T2 construct: made in house
T2 sequence (P09619 with tags, fused parts or gaps): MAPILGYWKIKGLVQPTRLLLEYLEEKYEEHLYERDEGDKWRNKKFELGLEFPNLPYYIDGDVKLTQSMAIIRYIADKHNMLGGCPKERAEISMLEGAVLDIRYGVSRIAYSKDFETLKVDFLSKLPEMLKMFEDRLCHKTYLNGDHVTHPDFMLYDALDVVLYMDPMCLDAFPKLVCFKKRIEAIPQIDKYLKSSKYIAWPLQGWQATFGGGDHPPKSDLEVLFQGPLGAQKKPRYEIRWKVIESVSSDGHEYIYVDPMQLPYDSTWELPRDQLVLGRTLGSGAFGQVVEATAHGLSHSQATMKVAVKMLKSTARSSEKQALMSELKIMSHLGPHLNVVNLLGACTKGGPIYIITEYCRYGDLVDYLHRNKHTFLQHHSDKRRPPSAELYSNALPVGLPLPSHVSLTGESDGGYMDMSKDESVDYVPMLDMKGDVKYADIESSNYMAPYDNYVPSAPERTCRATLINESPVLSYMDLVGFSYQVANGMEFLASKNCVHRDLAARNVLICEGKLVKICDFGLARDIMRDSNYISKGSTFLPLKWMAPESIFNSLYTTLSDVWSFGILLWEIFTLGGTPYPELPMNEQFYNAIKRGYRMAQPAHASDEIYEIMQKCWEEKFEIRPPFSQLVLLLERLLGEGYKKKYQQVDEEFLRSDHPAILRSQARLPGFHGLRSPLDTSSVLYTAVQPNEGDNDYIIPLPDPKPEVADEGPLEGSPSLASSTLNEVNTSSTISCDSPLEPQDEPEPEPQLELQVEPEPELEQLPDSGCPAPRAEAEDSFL
The experiment is described as follows: Human PDGFRβ biochemical inhibition assay (off-chip Mobility Shift Assay). An outline of the steps: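 GST-tagged cytoplasmic domain (aa 557-1106) from baculovirus was incubated 1 h at room temperature with compound, CSKtide, ATP at Km and Mg²⁺ in HEPES buffer, pH 7.5. Phosphorylated and unphosphorylated peptide were separated by off-chip mobility shift, and the product ratio P/(P+S) gave percent inhibition.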

pIC50: −log10 of the molar value. A value given as a limit tells only on which side of the number the result lay.

T1 sequence (P16234 550-1089 T674I): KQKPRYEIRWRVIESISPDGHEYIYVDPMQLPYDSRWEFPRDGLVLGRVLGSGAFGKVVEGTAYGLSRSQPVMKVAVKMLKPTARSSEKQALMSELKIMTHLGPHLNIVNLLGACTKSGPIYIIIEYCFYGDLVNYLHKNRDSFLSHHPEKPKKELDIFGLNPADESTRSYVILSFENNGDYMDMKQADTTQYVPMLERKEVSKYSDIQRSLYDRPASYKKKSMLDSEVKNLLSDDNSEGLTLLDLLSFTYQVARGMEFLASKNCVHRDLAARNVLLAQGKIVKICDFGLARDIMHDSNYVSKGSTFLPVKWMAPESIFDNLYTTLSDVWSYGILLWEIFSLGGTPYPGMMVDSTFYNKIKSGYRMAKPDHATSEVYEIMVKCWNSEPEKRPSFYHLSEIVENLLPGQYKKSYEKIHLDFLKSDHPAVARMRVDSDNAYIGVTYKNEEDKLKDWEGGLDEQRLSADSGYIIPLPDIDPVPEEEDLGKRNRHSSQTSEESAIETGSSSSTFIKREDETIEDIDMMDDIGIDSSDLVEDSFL

A word on the pIC50: it is the negative decadic logarithm of the IC50, by convention in mol/L. As for `C[C@H](Nc1cnc2cnn(C)c2n1)c1cccc(NC(=O)C2CC2C(F)(F)F)c1` (stereo partly drawn) [Compound 52, N-(3-((S)-1-((1-methyl-1H-pyrazolo[3,4-b]pyrazin-6-yl)amino)ethyl)phenyl)-2-(trifluoromethyl)cyclopropane-1-carboxamide], the negative logarithm of the IC50 (pIC50) is 6.00 to 6.52 in experiment [1] and not above 6.00 in experiment [2].
On to `C[C@H](Nc1cnc2cn[nH]c2n1)c1cccc(NC(=O)c2cncc(C3COC3)c2)c1` [Compound 97, (S)-N-(3-(1-((1H-pyrazolo[3,4-b]pyrazin-6-yl)amino)ethyl)phenyl)-5-(oxetan-3-yl) nicotinamide], for which the pIC50 in experiment [1] and in experiment [2] was more than 6.52 each time.
Take `CCn1cc2ncc(N[C@@H](C)c3cccc(NC(=O)Cc4ccc(OC)c(F)c4)c3)nc2n1` [Compound 626, (S)-N-(3-(1-((2-ethyl-2H-pyrazolo[3,4-b]pyrazin-6-yl)amino)ethyl)phenyl)-2-(3-fluoro-4-methoxyphenyl) acetamide]: the pIC50 in experiment [1] was more than 6.52; in experiment [2], not above 6.00.
The matching figures for `CCn1cc2ncc(N[C@@H](C)c3cc(NC(=O)c4ccc(CN5CCOCC5)c(C)c4)ccc3F)nc2n1` [Compound 446, (S)-N-(3-(1-((2-ethyl-2H-pyrazolo[3,4-b]pyrazin-6-yl)amino)ethyl)-4-fluorophenyl)-3-methyl-4-(morpholinomethyl) benzamide]: more than 6.52 and more than 6.52.
Consider `CCn1cc2ncc(N[C@@H](C)c3cc(NC(=O)c4ccc(CN5CCN(C)CC5)c(C(F)(F)F)c4)ccc3F)nc2n1` [Compound 444, (S)-N-(3-(1-((2-ethyl-2H-pyrazolo[3,4-b]pyrazin-6-yl)amino)ethyl)-4-fluorophenyl)-4-((4-methylpiperazin-1-yl)methyl)-3-(trifluoromethyl) benzamide], for which the pIC50 in experiment [1] and in experiment [2] was more than 6.52 throughout.
Turning to `CC(C)n1cc(C(=O)Nc2cccc([C@H](C)Nc3cnc4cnn(C)c4n3)c2)cn1` [Compound 147, (S)-1-isopropyl-N-(3-(1-((1-methyl-1H-pyrazolo[3,4-b]pyrazin-6-yl)amino)ethyl)phenyl)-1H-pyrazole-4-carboxamide], the pIC50 in experiment [1] and in experiment [2] was more than 6.52 throughout.
For the molecule `CCn1cc2ncc(N[C@@H](C)c3cc(NC(=O)c4ccc(CN5CCCC5)c(C)c4)ccc3C)nc2n1` [Compound 522, (S)-N-(3-(1-((2-ethyl-2H-pyrazolo[3,4-b]pyrazin-6-yl)amino)ethyl)-4-methylphenyl)-3-methyl-4-(pyrrolidin-1-ylmethyl)benzamide], the pIC50 in experiment [1] and in experiment [2] was more than 6.52 in each case.
As for `COC(=O)c1ccc(C(=O)Nc2cccc([C@H](C)Nc3cnc4cnn(C)c4n3)c2)cc1OC` [Compound 261, methyl (S)-2-methoxy-4-((3-(1-((1-methyl-1H-pyrazolo[3,4-b]pyrazin-6-yl)amino)ethyl)phenyl)carbamoyl)benzoate], the pIC50 in experiment [1] and in experiment [2] was more than 6.52 each time.
For `C[C@H](Nc1cnc2cnn(C)c2n1)c1cccc(NC(=O)c2ccc(C(F)(F)F)s2)c1` [Compound 137, (S)-N-(3-(1-((1-methyl-1H-pyrazolo[3,4-b]pyrazin-6-yl)amino)ethyl)phenyl)-5-(trifluoromethyl)thiophene-2-carboxamide], the negative-log IC50 (pIC50) in experiment [1] and in experiment [2] was more than 6.52 in each case.
As for `CCn1cc2ncc(N[C@@H](C)c3cc(NC(=O)c4cnc(C)c(C)c4)ccc3C)nc2n1` [Compound 509, (S)-N-(3-(1-((2-ethyl-2H-pyrazolo[3,4-b]pyrazin-6-yl)amino)ethyl)-4-methylphenyl)-5,6-dimethylnicotinamide], the pIC50 in experiment [1] and in experiment [2] was more than 6.52 throughout.
As for `Cc1cncc(C(=O)Nc2cccc([C@H](C)Nc3cnc4ccn(-c5cnn(C)c5)c4n3)c2)c1` [Compound 86, (S)-5-methyl-N-(3-(1-((5-(1-methyl-1H-pyrazol-4-yl)-5H-pyrrolo[2,3-b]pyrazin-3-yl)amino)ethyl)phenyl) nicotinamide], the pIC50 in experiment [1] and in experiment [2] was more than 6.52 in each case.
With `CCn1cc2ncc(N[C@@H](C)c3cc(NC(=O)Cc4ccc(C5CCC5)cn4)ccc3F)nc2n1` [Compound 667, (S)-2-(5-cyclobutylpyridin-2-yl)-N-(3-(1-((2-ethyl-2H-pyrazolo[3,4-b]pyrazin-6-yl)amino)ethyl)-4-fluorophenyl) acetamide], the pIC50 in experiment [1] was more than 6.52; in experiment [2], not above 6.00.
The matching figures for `CCc1ccc(C(=O)Nc2cccc([C@H](C)Nc3cnc4cnn(C)c4n3)c2)cc1C` [Compound 251, (S)-4-ethyl-3-methyl-N-(3-(1-((1-methyl-1H-pyrazolo[3,4-b]pyrazin-6-yl)amino)ethyl)phenyl)benzamide]: more than 6.52 and more than 6.52.
The matching figures for `Cc1c[nH]c2ncc(N[C@@H](C)c3cccc(NC(=O)c4cncc(Cl)c4)c3)nc12` [Compound 565, (S)-5-chloro-N-(3-(1-((7-methyl-5H-pyrrolo[2,3-b]pyrazin-2-yl)amino)ethyl)phenyl)nicotinamide]: more than 6.52 and more than 6.52.
The matching figures for `CCn1nc(C(=O)Nc2cccc([C@H](C)Nc3cnc4cnn(C)c4n3)c2)cc1C(C)C` [Compound 163, (S)-1-ethyl-5-isopropyl-N-(3-(1-((1-methyl-1H-pyrazolo[3,4-b]pyrazin-6-yl)amino)ethyl)phenyl)-1H-pyrazole-3-carboxamide]: more than 6.52 and more than 6.52.
With `C[C@H](Nc1cnc2cc(C3CC3)sc2n1)c1cc(NC(=O)c2ccc(C(F)(F)F)nc2)ccc1F` [Compound 616, (S)-N-(3-(1-((6-cyclopropylthieno[2,3-b]pyrazin-3-yl)amino)ethyl)-4-fluorophenyl)-6-(trifluoromethyl)nicotinamide], the pIC50 in experiment [1] and in experiment [2] was more than 6.52 throughout.
For the molecule `CCn1cc2ncc(N[C@@H](C)c3cc(NC(=O)c4ccc(C(F)(F)F)nc4)ccc3Cl)nc2n1` [Compound 458, (S)-N-(4-chloro-3-(1-((2-ethyl-2H-pyrazolo[3,4-b]pyrazin-6-yl)amino)ethyl)phenyl)-6-(trifluoromethyl)nicotinamide], the pIC50 in experiment [1] and in experiment [2] was more than 6.52 each time.
As to `[2H]C([2H])([2H])n1ncc2ncc(N[C@@H](C)c3cccc(NC(=O)c4cncc(C)c4)c3)nc21` [Compound 184, (S)-5-methyl-N-(3-(1-((1-(methyl-d3)-1H-pyrazolo[3,4-b]pyrazin-6-yl)amino)ethyl)phenyl)nicotinamide], the pIC50 in experiment [1] and in experiment [2] was more than 6.52 throughout.
Regarding `C[C@H](Nc1cnc2cnn(C)c2n1)c1cccc(NC(=O)c2cc(C3CC3)on2)c1` [Compound 144, (S)-5-cyclopropyl-N-(3-(1-((1-methyl-1H-pyrazolo[3,4-b]pyrazin-6-yl)amino)ethyl)phenyl)isoxazole-3-carboxamide], the pIC50 in experiment [1] and in experiment [2] was more than 6.52 throughout.
For `CCn1cc2ncc(N[C@@H](C)c3cc(NC(=O)Cc4ccc(C)nc4)ccc3F)nc2n1` [Compound 651, (S)-N-(3-(1-((2-ethyl-2H-pyrazolo[3,4-b]pyrazin-6-yl)amino)ethyl)-4-fluorophenyl)-2-(6-methylpyridin-3-yl) acetamide], the pIC50 in experiment [1] was more than 6.52; in experiment [2] it was not above 6.00.
